ChEMBL document CHEMBL3885861, “Open TG-GATES”

Species: Rattus norvegicus
Experiment: Open TG-GATES - Regimen: Single
Type: toxicity, organism-based, Sprague-Dawley
Parameters: regimen Single, gender Male, age 6 weeks
Settings: in vivo, po, route gavage; for APTT / Bas / Eos / Fbg / Hb / Ht / Lym / MCH / MCHC / MCV / Mono / Neu / PT / Plat / RBC / Ret / WBC: tissue Blood; for KIDNEY_L / KIDNEY_R / KIDNEY_TOTAL: tissue Kidney; for LIVER: tissue Liver; for A/G / ALP / ALT / AST / BUN / CRE / Ca / Cl / DBIL / GLC / IP / K / LDH / Na / PL / RALB / TBIL / TC / TG / TP / gamma-GTP: tissue Plasma
[1] = 0 mg/kg, 3 h, dose level Control
[2] = 0 mg/kg, 6 h, dose level Control
[3] = 0 mg/kg, 9 h, dose level Control
[4] = 0 mg/kg, 24 h, dose level Control

## CN(C/C=C/C#CC(C)(C)C)Cc1cccc2ccccc12 [TERBINAFINE]
[1]
  TERMINAL_BW: 225.4 g
  APTT: 18.8 s
  Bas: 0.6%
  Eos: 0.8%
  Fbg: 226 mg/dL
  Hb: 13.2 g/dL
  Ht: 39.2%
  Lym: 81.8%
  MCH: 21.8 pg
  MCHC: 33.7%
  MCV: 64.7 fL
  Mono: 2.4%
  Neu: 13.6%
  PT: 12.1 s
  Plat: 121.7 x10_4/uL
  RBC: 606.2 x10_4/ul
  Ret: 7.5%
  WBC: 116.5 x10_2/uL
  KIDNEY_L: 1.1 g
  KIDNEY_R: 1 g
  KIDNEY_TOTAL: 2.1 g
  LIVER: 10.9 g
  A/G: 1.7
  ALP: 1027 IU/L
  ALT: 40.4 IU/L
  AST: 72.4 IU/L
  BUN: 12 mg/dL
  CRE: 0.4 mg/dL
  Ca: 10.8 mg/dL
  Cl: 101.8 meq/L
  DBIL: 0.074 mg/dL
  GLC: 202.2 mg/dL
  IP: 9 mg/dL
  K: 3.7 meq/L
  LDH: 154.4 IU/L
  Na: 140.8 meq/L
  PL: 151.8 mg/dL
  RALB: 3.4 g/dL
  TBIL: 0.1 mg/dL
  TC: 85.4 mg/dL
  TG: 68.4 mg/dL
  TP: 5.5 g/dL
  gamma-GTP: 1 IU/L
[2]
  TERMINAL_BW: 222.8 g
  APTT: 19 s
  Bas: 0.6%
  Eos: 0.8%
  Fbg: 229.4 mg/dL
  Hb: 13.7 g/dL
  Ht: 40.5%
  Lym: 72.6%
  MCH: 21.1 pg
  MCHC: 33.8%
  MCV: 62.3 fL
  Mono: 3.2%
  Neu: 22.4%
  PT: 12 s
  Plat: 132.2 x10_4/uL
  RBC: 650.8 x10_4/ul
  Ret: 6.6%
  WBC: 113 x10_2/uL
  KIDNEY_L: 1 g
  KIDNEY_R: 1 g
  KIDNEY_TOTAL: 2 g
  LIVER: 9.9 g
  A/G: 1.7
  ALP: 967.6 IU/L
  ALT: 34.8 IU/L
  AST: 69.6 IU/L
  BUN: 10.6 mg/dL
  CRE: 0.4 mg/dL
  Ca: 10.8 mg/dL
  Cl: 102.8 meq/L
  DBIL: 0.074 mg/dL
  GLC: 197.2 mg/dL
  IP: 8.8 mg/dL
  K: 3.8 meq/L
  LDH: 147.4 IU/L
  Na: 140.6 meq/L
  PL: 133.4 mg/dL
  RALB: 3.5 g/dL
  TBIL: 0.1 mg/dL
  TC: 76.2 mg/dL
  TG: 59.2 mg/dL
  TP: 5.5 g/dL
  gamma-GTP: 1 IU/L
[3]
  TERMINAL_BW: 219.8 g
  APTT: 18.2 s
  Bas: 0.6%
  Eos: 1%
  Fbg: 229 mg/dL
  Hb: 13.4 g/dL
  Ht: 39.8%
  Lym: 73.8%
  MCH: 20.9 pg
  MCHC: 33.5%
  MCV: 62.5 fL
  Mono: 1.8%
  Neu: 22.4%
  PT: 12.2 s
  Plat: 119.3 x10_4/uL
  RBC: 637.4 x10_4/ul
  Ret: 6.8%
  WBC: 89.2 x10_2/uL
  KIDNEY_L: 1 g
  KIDNEY_R: 1 g
  KIDNEY_TOTAL: 2 g
  LIVER: 9.3 g
  A/G: 1.6
  ALP: 810.4 IU/L
  ALT: 31 IU/L
  AST: 62.8 IU/L
  BUN: 11.8 mg/dL
  CRE: 0.4 mg/dL
  Ca: 10.5 mg/dL
  Cl: 103.6 meq/L
  DBIL: 0.066 mg/dL
  GLC: 204.2 mg/dL
  IP: 9.8 mg/dL
  K: 3.9 meq/L
  LDH: 167.6 IU/L
  Na: 141.4 meq/L
  PL: 136.4 mg/dL
  RALB: 3.4 g/dL
  TBIL: 0.1 mg/dL
  TC: 70.2 mg/dL
  TG: 62 mg/dL
  TP: 5.6 g/dL
  gamma-GTP: 1.4 IU/L
[4]
  TERMINAL_BW: 238.7 g
  APTT: 18.9 s
  Bas: 0.8%
  Eos: 1%
  Fbg: 236.8 mg/dL
  Hb: 13.2 g/dL
  Ht: 39.1%
  Lym: 79.2%
  MCH: 21.6 pg
  MCHC: 33.7%
  MCV: 64.3 fL
  Mono: 2.8%
  Neu: 16.4%
  PT: 11.8 s
  Plat: 132.1 x10_4/uL
  RBC: 608.4 x10_4/ul
  Ret: 6.3%
  WBC: 97.8 x10_2/uL
  KIDNEY_L: 1 g
  KIDNEY_R: 1 g
  KIDNEY_TOTAL: 2 g
  LIVER: 11.6 g
  A/G: 1.6
  ALP: 986.4 IU/L
  ALT: 36.4 IU/L
  AST: 74.4 IU/L
  BUN: 15.4 mg/dL
  CRE: 0.4 mg/dL
  Ca: 10.9 mg/dL
  Cl: 103.6 meq/L
  DBIL: 0.1 mg/dL
  GLC: 196.8 mg/dL
  IP: 7.4 mg/dL
  K: 4.2 meq/L
  LDH: 189.4 IU/L
  Na: 141.2 meq/L
  PL: 152 mg/dL
  RALB: 3.5 g/dL
  TBIL: 0.2 mg/dL
  TC: 74.4 mg/dL
  TG: 107.8 mg/dL
  TP: 5.7 g/dL
  gamma-GTP: 1.6 IU/L
75 mg/kg, 3 h, dose level Low
  TERMINAL_BW: 225.9 g
  APTT: 19.4 s
  Bas: 0.8%
  Eos: 1%
  Fbg: 219 mg/dL
  Hb: 13.2 g/dL
  Ht: 39.1%
  Lym: 82.2%
  MCH: 21.2 pg
  MCHC: 33.8%
  MCV: 62.7 fL
  Mono: 2.2%
  Neu: 14%
  PT: 12 s
  Plat: 116.2 x10_4/uL
  RBC: 625.2 x10_4/ul
  Ret: 7.3%
  WBC: 88.5 x10_2/uL
  KIDNEY_L: 1 g
  KIDNEY_R: 1 g
  KIDNEY_TOTAL: 2 g
  LIVER: 10.4 g
  A/G: 1.6
  ALP: 998 IU/L
  ALT: 38.6 IU/L
  AST: 69 IU/L
  BUN: 11.8 mg/dL
  CRE: 0.4 mg/dL
  Ca: 10.7 mg/dL
  Cl: 102.6 meq/L
  DBIL: 0.088 mg/dL
  GLC: 202.8 mg/dL
  IP: 9.5 mg/dL
  K: 3.8 meq/L
  LDH: 161.4 IU/L
  Na: 141.4 meq/L
  PL: 143.6 mg/dL
  RALB: 3.4 g/dL
  TBIL: 0.1 mg/dL
  TC: 79.4 mg/dL
  TG: 51.2 mg/dL
  TP: 5.5 g/dL
  gamma-GTP: 0.8 IU/L
75 mg/kg, 6 h, dose level Low
  TERMINAL_BW: 221.9 g
  APTT: 19.3 s
  Bas: 0.8%
  Eos: 1%
  Fbg: 224.2 mg/dL
  Hb: 13.5 g/dL
  Ht: 40%
  Lym: 78.8%
  MCH: 21.3 pg
  MCHC: 33.7%
  MCV: 63.1 fL
  Mono: 2.4%
  Neu: 17.2%
  PT: 12.1 s
  Plat: 113 x10_4/uL
  RBC: 634 x10_4/ul
  Ret: 6.9%
  WBC: 114.1 x10_2/uL
  KIDNEY_L: 1 g
  KIDNEY_R: 1 g
  KIDNEY_TOTAL: 2 g
  LIVER: 10.2 g
  A/G: 1.6
  ALP: 872.2 IU/L
  ALT: 34.6 IU/L
  AST: 66 IU/L
  BUN: 10.6 mg/dL
  CRE: 0.4 mg/dL
  Ca: 10.9 mg/dL
  Cl: 102.2 meq/L
  DBIL: 0.086 mg/dL
  GLC: 200 mg/dL
  IP: 9.3 mg/dL
  K: 4 meq/L
  LDH: 147 IU/L
  Na: 140.8 meq/L
  PL: 143.2 mg/dL
  RALB: 3.4 g/dL
  TBIL: 0.1 mg/dL
  TC: 77.6 mg/dL
  TG: 76.6 mg/dL
  TP: 5.5 g/dL
  gamma-GTP: 1 IU/L
75 mg/kg, 9 h, dose level Low
  TERMINAL_BW: 219.9 g
  APTT: 18.1 s
  Bas: 0.8%
  Eos: 1.2%
  Fbg: 215.6 mg/dL
  Hb: 13.2 g/dL
  Ht: 39.5%
  Lym: 77.6%
  MCH: 21.6 pg
  MCHC: 33.6%
  MCV: 64.3 fL
  Mono: 2%
  Neu: 18.4%
  PT: 12.6 s
  Plat: 113.5 x10_4/uL
  RBC: 614.2 x10_4/ul
  Ret: 6.6%
  WBC: 90.4 x10_2/uL
  KIDNEY_L: 1 g
  KIDNEY_R: 1 g
  KIDNEY_TOTAL: 2 g
  LIVER: 8.9 g
  A/G: 1.6
  ALP: 930.2 IU/L
  ALT: 33.2 IU/L
  AST: 71.4 IU/L
  BUN: 10.6 mg/dL
  CRE: 0.3 mg/dL
  Ca: 10.3 mg/dL
  Cl: 103.8 meq/L
  DBIL: 0.062 mg/dL
  GLC: 202.6 mg/dL
  IP: 9.9 mg/dL
  K: 3.8 meq/L
  LDH: 195.4 IU/L
  Na: 141.4 meq/L
  PL: 124 mg/dL
  RALB: 3.3 g/dL
  TBIL: 0.1 mg/dL
  TC: 68.8 mg/dL
  TG: 29.8 mg/dL
  TP: 5.4 g/dL
  gamma-GTP: 1.6 IU/L
75 mg/kg, 24 h, dose level Low
  TERMINAL_BW: 238.9 g
  APTT: 19.4 s
  Bas: 0.8%
  Eos: 1%
  Fbg: 227.2 mg/dL
  Hb: 13.3 g/dL
  Ht: 39.7%
  Lym: 77.2%
  MCH: 21.1 pg
  MCHC: 33.6%
  MCV: 62.9 fL
  Mono: 3%
  Neu: 17.8%
  PT: 12 s
  Plat: 124.5 x10_4/uL
  RBC: 631.4 x10_4/ul
  Ret: 6.6%
  WBC: 82.1 x10_2/uL
  KIDNEY_L: 1.1 g
  KIDNEY_R: 1 g
  KIDNEY_TOTAL: 2.1 g
  LIVER: 11.8 g
  A/G: 1.5
  ALP: 1096 IU/L
  ALT: 42.8 IU/L
  AST: 84.8 IU/L
  BUN: 15.2 mg/dL
  CRE: 0.4 mg/dL
  Ca: 10.8 mg/dL
  Cl: 104.2 meq/L
  DBIL: 0.1 mg/dL
  GLC: 194.2 mg/dL
  IP: 7.7 mg/dL
  K: 4.3 meq/L
  LDH: 207.8 IU/L
  Na: 141 meq/L
  PL: 135.6 mg/dL
  RALB: 3.4 g/dL
  TBIL: 0.2 mg/dL
  TC: 68.6 mg/dL
  TG: 109.2 mg/dL
  TP: 5.6 g/dL
  gamma-GTP: 1.6 IU/L
